The first assay has as its system panelists. The assay can be described thus: Flavor evaluation of ethanol solution (bottle mouth and flavor paper). It counts as in vivo. To be noted: 1% ethanol solution, typical evaluation, 5 panelists. As for the experimental part: A […] ethanol solution of the invention products 1 to 6 prepared in Examples 1 to 6 was prepared as an evaluation solution. The evaluation solution was prepared in a sample bottle. Regarding the flavor of the sample smelling from the bottle mouth and the flavor of a flavor paper prepared by infiltrating the evaluation solution into a paper, well-trained 5 panelists tested the solution for flavor evaluation.
A 0.1% ethanol solution of the invention product 101 (2-(3-benzyloxypropyl)pyridine) prepared in Example 101 was prepared as an evaluation solution. The evaluation solution was prepared in a sample bottle. Regarding the flavor of the sample smelling from the bottle mouth and the flavor of a flavor paper prepared by infiltrating the evaluation solution into a paper, well-trained 5 panelists tested the solution for flavor evaluation. A typical evaluation of the product is as follows.
Consider `c1ccc(CCSCCc2ccccn2)cc1` [invention product 4, 2-(2-phenylethylthioethyl)pyridine], for which the “Flavor Evaluation” value was “Metallic spicy savor”.
As for `Cc1ccc(COCCCc2ccccn2)cc1` [invention product 5, 2-[3-(p-methylbenzyloxy)propyl]pyridine], the “Flavor Evaluation” value is “Nutty”.
On the same count and under the same terms, the entry for `Cc1ccc(C)c(COCCCc2ccccn2)c1` [invention product 6, 2-[3-(2,5-dimethylbenzyloxy)propyl]pyridine] is “Rummy”.

A further assay concerns panelists. The assay is described as follows: Confirmation of umami in water (point score). As to conditions: 0.1 ppm in water; average point of 10 panelists; 0 no difference from control (water), 1 somewhat stronger, 2 stronger, 3 considerably stronger, 4 poor taste balance. It counts as in vivo. As for the experimental part:
As a comparative product, a solution was prepared by dissolving the comparative product 1 (2-(2-benzyloxyethyl)pyridine) to have the same concentration. Water with no addition was prepared as a control product. Well-trained 10 panelists tasted the solutions prepared by dissolving any the invention products 1 to 6 and the comparative product 1 for organoleptic evaluation of umami.
Umami evaluation was based on the control product of water.
Regarding `c1ccc(CCSCCc2ccccn2)cc1` [invention product 4, 2-(2-phenylethylthioethyl)pyridine], the “umami (average point)” value amounted to 1.6.
Same read-out and setting: next, `Cc1ccc(COCCCc2ccccn2)cc1` [invention product 5, 2-[3-(p-methylbenzyloxy)propyl]pyridine]: 1.4.
Take `Cc1ccc(C)c(COCCCc2ccccn2)c1` [invention product 6, 2-[3-(2,5-dimethylbenzyloxy)propyl]pyridine]: the “umami (average point)” value worked out at 1.2.

Still in this assay, the particulars now being: 1 ppm in water; average point of 10 panelists; 0 no difference from control (water), 1 somewhat stronger, 2 stronger, 3 considerably stronger, 4 poor taste balance.
As for `c1ccc(CCSCCc2ccccn2)cc1` [invention product 4, 2-(2-phenylethylthioethyl)pyridine], the “umami (average point)” value is recorded as 2.2.
Still for that read-out and setting: the figure for `Cc1ccc(COCCCc2ccccn2)cc1` [invention product 5, 2-[3-(p-methylbenzyloxy)propyl]pyridine] is 2.0; for `Cc1ccc(C)c(COCCCc2ccccn2)c1` [invention product 6, 2-[3-(2,5-dimethylbenzyloxy)propyl]pyridine] it is 2.0.

Still in this assay, the particulars now being: 2 ppb in water; average point of 10 panelists; 0 no difference from control (water), 1 somewhat stronger, 2 stronger, 3 considerably stronger, 4 poor taste balance.
On to `c1ccc(CCSCCc2ccccn2)cc1` [invention product 4, 2-(2-phenylethylthioethyl)pyridine], for which the “umami (average point)” value amounted to 0.0.
Still for that read-out and setting: next, `Cc1ccc(COCCCc2ccccn2)cc1` [invention product 5, 2-[3-(p-methylbenzyloxy)propyl]pyridine]: 0.0; `Cc1ccc(C)c(COCCCc2ccccn2)c1` [invention product 6, 2-[3-(2,5-dimethylbenzyloxy)propyl]pyridine]: 0.0.

The same assay, now with this note: 10 ppb in water; average point of 10 panelists; 0 no difference from control (water), 1 somewhat stronger, 2 stronger, 3 considerably stronger, 4 poor taste balance.
Consider `c1ccc(CCSCCc2ccccn2)cc1` [invention product 4, 2-(2-phenylethylthioethyl)pyridine], for which the “umami (average point)” value came to 0.7.
On the same count and under the same terms, the figure for `Cc1ccc(COCCCc2ccccn2)cc1` [invention product 5, 2-[3-(p-methylbenzyloxy)propyl]pyridine] is 0.6; for `Cc1ccc(C)c(COCCCc2ccccn2)c1` [invention product 6, 2-[3-(2,5-dimethylbenzyloxy)propyl]pyridine] it is 0.5.

Still in this assay, the particulars now being: 20 ppm in water; average point of 10 panelists; 0 no difference from control (water), 1 somewhat stronger, 2 stronger, 3 considerably stronger, 4 poor taste balance.
Take `c1ccc(CCSCCc2ccccn2)cc1` [invention product 4, 2-(2-phenylethylthioethyl)pyridine]: the “umami (average point)” value amounted to 3.0.
In the case of `Cc1ccc(COCCCc2ccccn2)cc1` [invention product 5, 2-[3-(p-methylbenzyloxy)propyl]pyridine], the “umami (average point)” value was determined as 2.7.
Still for that read-out and setting: the figure for `Cc1ccc(C)c(COCCCc2ccccn2)c1` [invention product 6, 2-[3-(2,5-dimethylbenzyloxy)propyl]pyridine] is 2.6.

Staying with this assay, now noted: 200 ppm in water; average point of 10 panelists; 0 no difference from control (water), 1 somewhat stronger, 2 stronger, 3 considerably stronger, 4 poor taste balance.
Turning to `c1ccc(CCSCCc2ccccn2)cc1` [invention product 4, 2-(2-phenylethylthioethyl)pyridine], the “umami (average point)” value was found to be 3.6.
The same measure, in the same setting: the figure for `Cc1ccc(COCCCc2ccccn2)cc1` [invention product 5, 2-[3-(p-methylbenzyloxy)propyl]pyridine] is 3.1.
Still for that read-out and setting: the figure for `Cc1ccc(C)c(COCCCc2ccccn2)c1` [invention product 6, 2-[3-(2,5-dimethylbenzyloxy)propyl]pyridine] is 3.0.

Staying with this assay, now noted: 500 ppm in water; average point of 10 panelists; 0 no difference from control (water), 1 somewhat stronger, 2 stronger, 3 considerably stronger, 4 poor taste balance.
Consider `c1ccc(CCSCCc2ccccn2)cc1` [invention product 4, 2-(2-phenylethylthioethyl)pyridine], for which the “umami (average point)” value was 3.9.
Same read-out and setting: the figure for `Cc1ccc(COCCCc2ccccn2)cc1` [invention product 5, 2-[3-(p-methylbenzyloxy)propyl]pyridine] is 3.6; for `Cc1ccc(C)c(COCCCc2ccccn2)c1` [invention product 6, 2-[3-(2,5-dimethylbenzyloxy)propyl]pyridine] it is 3.6.

Staying with this assay, now noted: 2000 ppm in water; average point of 10 panelists; 0 no difference from control (water), 1 somewhat stronger, 2 stronger, 3 considerably stronger, 4 poor taste balance.
As for `c1ccc(CCSCCc2ccccn2)cc1` [invention product 4, 2-(2-phenylethylthioethyl)pyridine], the “umami (average point)” value is listed as 4.0.
Same read-out and setting: the figure for `Cc1ccc(COCCCc2ccccn2)cc1` [invention product 5, 2-[3-(p-methylbenzyloxy)propyl]pyridine] is 3.9; for `Cc1ccc(C)c(COCCCc2ccccn2)c1` [invention product 6, 2-[3-(2,5-dimethylbenzyloxy)propyl]pyridine] it is 3.9.

Another assay concerns panelists. The assay can be described thus: Confirmation of umami imparting and saltiness enhancing effect in 0.3 mass % sodium chloride (point score). It counts as in vivo. To be noted: 0.05 ppb in aqueous 0.3 mass % sodium chloride solution; average point of 10 panelists vs control; 0 no change, 1 slightly higher, 2 higher, 3 considerably higher, 4 extremely higher umami and saltiness, 5 bitter as lacking balance. As for the experimental part:
An aqueous 0.3 mass % sodium chloride solution (control), and solutions of the invention products 1 to 6 each dissolved in a 0.3 mass % sodium chloride solution to have the concentration shown in Table 5 were prepared. As a comparative product, a solution was prepared by dissolving the comparative product 1 in 0.3 mass % sodium chloride. Well-trained 10 panelists tasted the solutions for organoleptic evaluation of umami impartment and saltiness enhancement.
Umami and saltiness scores are as follows, based on the aqueous 0.3 mass % sodium chloride solution as a control. Each sample was given any of a point 0, no change from control; 1, slightly higher umami and saltiness than control; 2, higher umami and saltiness than control; 3, considerably higher umami and saltiness than control; 4, extremely higher umami and saltiness than control; and 5, bitter as lacking balance of umami and saltiness.
Consider `c1ccc(CCSCCc2ccccn2)cc1` [invention product 4, 2-(2-phenylethylthioethyl)pyridine], for which the “umami and saltiness (average point)” value was 0.0.
The same measure, in the same setting: next, `Cc1ccc(COCCCc2ccccn2)cc1` [invention product 5, 2-[3-(p-methylbenzyloxy)propyl]pyridine]: 0.0.
Same read-out and setting: the figure for `Cc1ccc(C)c(COCCCc2ccccn2)c1` [invention product 6, 2-[3-(2,5-dimethylbenzyloxy)propyl]pyridine] is 0.0.

The assay is the same for the next values; noted with them: 0.1 ppb in aqueous 0.3 mass % sodium chloride solution; average point of 10 panelists vs control; 0 no change, 1 slightly higher, 2 higher, 3 considerably higher, 4 extremely higher umami and saltiness, 5 bitter as lacking balance.
With `c1ccc(CCSCCc2ccccn2)cc1` [invention product 4, 2-(2-phenylethylthioethyl)pyridine], the “umami and saltiness (average point)” value was 0.6.
On the same count and under the same terms, next, `Cc1ccc(COCCCc2ccccn2)cc1` [invention product 5, 2-[3-(p-methylbenzyloxy)propyl]pyridine]: 0.8; `Cc1ccc(C)c(COCCCc2ccccn2)c1` [invention product 6, 2-[3-(2,5-dimethylbenzyloxy)propyl]pyridine]: 0.5.

Still in this assay, the particulars now being: 0.1 ppm in aqueous 0.3 mass % sodium chloride solution; average point of 10 panelists vs control; 0 no change, 1 slightly higher, 2 higher, 3 considerably higher, 4 extremely higher umami and saltiness, 5 bitter as lacking balance.
For the molecule `c1ccc(CCSCCc2ccccn2)cc1` [invention product 4, 2-(2-phenylethylthioethyl)pyridine], the “umami and saltiness (average point)” value was 3.4.
As to `Cc1ccc(COCCCc2ccccn2)cc1` [invention product 5, 2-[3-(p-methylbenzyloxy)propyl]pyridine], the “umami and saltiness (average point)” value worked out at 3.0.
The same measure, in the same setting: next, `Cc1ccc(C)c(COCCCc2ccccn2)c1` [invention product 6, 2-[3-(2,5-dimethylbenzyloxy)propyl]pyridine]: 2.9.

Staying with this assay, now noted: 0.5 ppm in aqueous 0.3 mass % sodium chloride solution; average point of 10 panelists vs control; 0 no change, 1 slightly higher, 2 higher, 3 considerably higher, 4 extremely higher umami and saltiness, 5 bitter as lacking balance.
On to `c1ccc(CCSCCc2ccccn2)cc1` [invention product 4, 2-(2-phenylethylthioethyl)pyridine], for which the “umami and saltiness (average point)” value worked out at 3.8.
Still for that read-out and setting: next, `Cc1ccc(COCCCc2ccccn2)cc1` [invention product 5, 2-[3-(p-methylbenzyloxy)propyl]pyridine]: 3.6; `Cc1ccc(C)c(COCCCc2ccccn2)c1` [invention product 6, 2-[3-(2,5-dimethylbenzyloxy)propyl]pyridine]: 3.5.

Still in this assay, the particulars now being: 1 ppb in aqueous 0.3 mass % sodium chloride solution; average point of 10 panelists vs control; 0 no change, 1 slightly higher, 2 higher, 3 considerably higher, 4 extremely higher umami and saltiness, 5 bitter as lacking balance.
For `c1ccc(CCSCCc2ccccn2)cc1` [invention product 4, 2-(2-phenylethylthioethyl)pyridine], the “umami and saltiness (average point)” value was determined as 1.8.
On the same count and under the same terms, next, `Cc1ccc(COCCCc2ccccn2)cc1` [invention product 5, 2-[3-(p-methylbenzyloxy)propyl]pyridine]: 1.5.
The same measure, in the same setting: next, `Cc1ccc(C)c(COCCCc2ccccn2)c1` [invention product 6, 2-[3-(2,5-dimethylbenzyloxy)propyl]pyridine]: 1.3.

The same assay, now with this note: 2 ppm in aqueous 0.3 mass % sodium chloride solution; average point of 10 panelists vs control; 0 no change, 1 slightly higher, 2 higher, 3 considerably higher, 4 extremely higher umami and saltiness, 5 bitter as lacking balance.
For the molecule `c1ccc(CCSCCc2ccccn2)cc1` [invention product 4, 2-(2-phenylethylthioethyl)pyridine], the “umami and saltiness (average point)” value was 4.5.
On the same count and under the same terms, the figure for `Cc1ccc(COCCCc2ccccn2)cc1` [invention product 5, 2-[3-(p-methylbenzyloxy)propyl]pyridine] is 4.2.
On to `Cc1ccc(C)c(COCCCc2ccccn2)c1` [invention product 6, 2-[3-(2,5-dimethylbenzyloxy)propyl]pyridine], for which the “umami and saltiness (average point)” value came out at 4.1.

The same assay, now with this note: 10 ppb in aqueous 0.3 mass % sodium chloride solution; average point of 10 panelists vs control; 0 no change, 1 slightly higher, 2 higher, 3 considerably higher, 4 extremely higher umami and saltiness, 5 bitter as lacking balance.
For the molecule `c1ccc(CCSCCc2ccccn2)cc1` [invention product 4, 2-(2-phenylethylthioethyl)pyridine], the “umami and saltiness (average point)” value is recorded as 2.3.
For the molecule `Cc1ccc(COCCCc2ccccn2)cc1` [invention product 5, 2-[3-(p-methylbenzyloxy)propyl]pyridine], the “umami and saltiness (average point)” value turned out to be 2.2.
Still for that read-out and setting: next, `Cc1ccc(C)c(COCCCc2ccccn2)c1` [invention product 6, 2-[3-(2,5-dimethylbenzyloxy)propyl]pyridine]: 2.0.

Staying with this assay, now noted: 10 ppm in aqueous 0.3 mass % sodium chloride solution; average point of 10 panelists vs control; 0 no change, 1 slightly higher, 2 higher, 3 considerably higher, 4 extremely higher umami and saltiness, 5 bitter as lacking balance.
Regarding `c1ccc(CCSCCc2ccccn2)cc1` [invention product 4, 2-(2-phenylethylthioethyl)pyridine], the “umami and saltiness (average point)” value turned out to be 4.8.
Still for that read-out and setting: the figure for `Cc1ccc(COCCCc2ccccn2)cc1` [invention product 5, 2-[3-(p-methylbenzyloxy)propyl]pyridine] is 4.6; for `Cc1ccc(C)c(COCCCc2ccccn2)c1` [invention product 6, 2-[3-(2,5-dimethylbenzyloxy)propyl]pyridine] it is 4.6.

Staying with this assay, now noted: 50 ppm in aqueous 0.3 mass % sodium chloride solution; average point of 10 panelists vs control; 0 no change, 1 slightly higher, 2 higher, 3 considerably higher, 4 extremely higher umami and saltiness, 5 bitter as lacking balance.
For `c1ccc(CCSCCc2ccccn2)cc1` [invention product 4, 2-(2-phenylethylthioethyl)pyridine], the “umami and saltiness (average point)” value turned out to be 5.0.
Still for that read-out and setting: next, `Cc1ccc(COCCCc2ccccn2)cc1` [invention product 5, 2-[3-(p-methylbenzyloxy)propyl]pyridine]: 4.8; `Cc1ccc(C)c(COCCCc2ccccn2)c1` [invention product 6, 2-[3-(2,5-dimethylbenzyloxy)propyl]pyridine]: 4.8.

Source of the values: patent publication US10894772B2, “Flavor modulator having pyridine derivative or salt thereof as active ingredient” (T. HASEGAWA CO., LTD., priority 2015, dated 2021).
